Assays:
[1] = biological target: Neprilysin (Homo sapiens, UniProt P08473); test: Compound was evaluated for inhibition of recombinant human neprilysin(NEP).
[2] = biological target: T1, Angiotensin-converting enzyme (Rattus norvegicus, UniProt P47820); test: Compound was measured for the inhibition of Angiotensin I converting enzyme
T1 sequence (P47820 whole entry): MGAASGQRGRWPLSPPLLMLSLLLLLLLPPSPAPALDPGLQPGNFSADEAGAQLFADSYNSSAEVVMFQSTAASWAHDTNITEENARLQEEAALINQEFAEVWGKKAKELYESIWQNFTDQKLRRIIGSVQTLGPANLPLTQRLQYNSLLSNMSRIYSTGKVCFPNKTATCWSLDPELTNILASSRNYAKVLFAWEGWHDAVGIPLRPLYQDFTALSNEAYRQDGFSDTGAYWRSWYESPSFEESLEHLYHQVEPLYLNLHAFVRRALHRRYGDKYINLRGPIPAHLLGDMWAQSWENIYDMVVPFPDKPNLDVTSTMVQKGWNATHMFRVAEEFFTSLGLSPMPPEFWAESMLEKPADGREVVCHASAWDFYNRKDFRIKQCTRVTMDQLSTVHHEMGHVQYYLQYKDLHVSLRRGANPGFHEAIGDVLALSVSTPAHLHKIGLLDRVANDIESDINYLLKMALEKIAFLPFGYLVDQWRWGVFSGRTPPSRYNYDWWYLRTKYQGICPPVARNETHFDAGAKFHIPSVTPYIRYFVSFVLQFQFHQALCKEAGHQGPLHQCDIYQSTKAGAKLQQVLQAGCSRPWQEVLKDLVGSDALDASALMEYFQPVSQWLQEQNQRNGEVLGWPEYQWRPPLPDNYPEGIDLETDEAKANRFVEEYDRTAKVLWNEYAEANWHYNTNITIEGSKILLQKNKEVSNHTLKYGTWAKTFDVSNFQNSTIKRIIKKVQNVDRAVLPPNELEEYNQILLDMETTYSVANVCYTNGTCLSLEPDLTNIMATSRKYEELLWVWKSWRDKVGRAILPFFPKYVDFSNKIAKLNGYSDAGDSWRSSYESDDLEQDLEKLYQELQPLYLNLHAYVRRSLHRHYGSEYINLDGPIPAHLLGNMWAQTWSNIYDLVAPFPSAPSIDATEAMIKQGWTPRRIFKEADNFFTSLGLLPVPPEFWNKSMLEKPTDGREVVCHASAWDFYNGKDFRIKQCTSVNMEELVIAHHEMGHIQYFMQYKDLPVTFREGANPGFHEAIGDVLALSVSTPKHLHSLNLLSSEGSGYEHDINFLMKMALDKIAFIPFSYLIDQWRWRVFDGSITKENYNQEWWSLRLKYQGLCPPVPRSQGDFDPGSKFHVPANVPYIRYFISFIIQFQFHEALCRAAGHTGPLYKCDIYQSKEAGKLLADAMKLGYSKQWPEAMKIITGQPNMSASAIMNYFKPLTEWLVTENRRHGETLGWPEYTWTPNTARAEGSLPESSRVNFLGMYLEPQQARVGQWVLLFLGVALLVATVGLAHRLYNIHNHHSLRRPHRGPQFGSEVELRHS

Neprilysin, sequence (P08473 whole entry): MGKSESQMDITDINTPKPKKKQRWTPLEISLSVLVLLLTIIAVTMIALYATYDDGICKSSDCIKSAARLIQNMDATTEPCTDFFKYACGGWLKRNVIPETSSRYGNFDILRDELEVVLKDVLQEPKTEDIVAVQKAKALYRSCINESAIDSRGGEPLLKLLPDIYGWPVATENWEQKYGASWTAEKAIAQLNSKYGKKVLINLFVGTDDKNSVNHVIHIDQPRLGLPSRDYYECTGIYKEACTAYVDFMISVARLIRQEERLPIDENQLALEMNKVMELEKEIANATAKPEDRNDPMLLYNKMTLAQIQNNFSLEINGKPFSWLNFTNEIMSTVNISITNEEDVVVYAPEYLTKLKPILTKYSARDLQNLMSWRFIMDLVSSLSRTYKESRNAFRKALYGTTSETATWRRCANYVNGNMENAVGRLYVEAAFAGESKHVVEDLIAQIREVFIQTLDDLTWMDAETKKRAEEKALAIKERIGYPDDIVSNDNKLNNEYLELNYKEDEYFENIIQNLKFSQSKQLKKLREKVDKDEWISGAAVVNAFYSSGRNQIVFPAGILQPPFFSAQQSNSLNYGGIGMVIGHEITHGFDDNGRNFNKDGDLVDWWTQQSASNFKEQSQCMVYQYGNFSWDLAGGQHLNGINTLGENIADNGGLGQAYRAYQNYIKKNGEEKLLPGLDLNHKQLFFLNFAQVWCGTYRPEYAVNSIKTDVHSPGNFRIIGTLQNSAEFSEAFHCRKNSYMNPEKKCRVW

Ki [1]	Ki [2]	Compound
> 0.1 µM		O=C(O)CNC(=O)C(CS)(Cc1ccccc1)Cc1ccccc1
0.408 µM		O=C(O)CNC(=O)/C(=C/c1ccccc1)CS
0.0049 µM	0.38 µM	O=C(O)CNC(=O)/C(=C\c1ccccc1)CS
0.162 µM		O=C(O)CNC(=O)C1(CS)Cc2ccccc2C1

Source: ChEMBL document CHEMBL1129196, “Studies on the structural feature of S'1 subsite of neprilysin (EC.3.4.24.11): Stereochemical requirement for the enzyme-inhibitor docking process” (Bioorg Med Chem Lett, 1996)
